How the values were obtained:
[1] = test system: bovine serum albumin (BSA); assay: Adjuvant character in the aqueous phase (anti-BSA antibody titer, passive hemagglutination); type: in vivo, Swiss mice; conditions: 100 μg adjuvant s.c. with 0.5 mg BSA in isotonic saline; booster day 30; six days after booster; maximum serum dilution agglutinating
Experimental: Groups of 8 Swiss mice aged two months received, by sub-cutaneous injection (SC), 0.5 mg of antigen constituted by bovine serum albumin (BSA) with 0.1 mg or without the tested substance in an isotonic saline solution. This high dose of antigen, because it is situated at the limit of the paralyzing dose with respect to the immunitary response, results, for this reason, in a weak or zero response to the antigen only in the controls: It constitutes therefore a severe criterion to establish the activity of an adjuvant substance. Thirty days later, the mice received, by the same administrative route, a booster containing 0.1 mg of the same antigen.
The antibody level was determined, six days after the booster, by passive hemagglutination using sheep's red blood corpuscles treated with formalin and covered with the antigen studied according to the method described by A. A. HIRATA and M. W. BRANDISS (J. Immunol., 100, 641-648, 1968).
The antibody titer, represented by the maximum serum dilution agglutinating a given amount of sheep corpuscles, reaches a maximum at the 36th day. The results obtained for various products according to the invention are shown in Table I. By way of comparison, the results obtained with MDP are indicated, on the one hand, and for PAP-MDP, on the other hand.

[2] = test system: ovalbumin; assay: Adjuvant character in emulsion: serum antibodies specific for ovalbumin; type: in vivo, Hartley guinea pigs; conditions: emulsion with 1 mg ovalbumin, intradermal; product 50 μg in FIA; day 21; μg nitrogen precipitatable by antigen per ml serum
Experimental: (§1) The tests were carried out on batches of 6 male Hartley guinea pigs of 350 g. The administration was done by intradermal injection into the plantar pad of each of the rear paws. Ovalbumin (constituting the antigen) in the amount of 1 mg is prepared in 0.1 ml of an emulsion of saline isotonic solution, in an oily phase constituted either by the Freund incomplete adjuvant (FIA) or by the complete adjuvant (FCA) formed by the FIA to which is added 0.1 mg of whole Mycobacterium smegmatis cells. The compound according to the invention was administered in the amount of 0.05 mg added in the emulsion containing the FIA.
Twenty-one days after the injection, the animals were bled. On the collected serum, the content of specific antibodies of the ovalbumin was measured by precipitation of the antibody-antigen complex in the equivalence zone. The amount of protein nitrogen contained in the precipitate was estimated by the Folin method. These values express the amount, in micrograms, of nitrogen precipitatable by the antigen, per milliliter of the serum.

[3] = test system: Klebsiella pneumoniae; assay: Anti-Klebsiella pneumoniae activity in the adult mouse; type: in vivo; conditions: for anti-infectious activity with respect to Klebsiella pneumoniae (in words) / % Protection / Number of mice D + 3 (survivors) / Number of mice D + 5 (survivors) / Number of mice D + 10 (survivors): adult mouse; for anti-infectious activity with respect to Klebsiella pneumoniae (in words): summary of Table 3; for % Protection / Number of mice D + 3 (survivors) / Number of mice D + 5 (survivors) / Number of mice D + 10 (survivors): i.v.
Experimental: An experimental procedure was studied by CHEDID L. et coll. in "Proc. Natl. Acad. Sci. USA," 1977, 74: 2089, which permits the stimulating effect or not to be observed of substances studied with regard to immune defenses according as they protect or not the mice to which they are injected, the mice being inoculated by a dose of Klebsiella pneumoniae which results in the death of almost all of the controls.
(§2) The testing procedure is described in the article CHEDID L. et coll., Proc. Natl. Acad. Sci. USA, 74:2089.
(§3) It was shown that a dose of about 10^4 Klebsiella pneumoniae, injected by the intramuscular route in mice, results in the gradual death of a considerable part, if not all, of the animals in the week following the inoculation. After 8 days, the survival of the animals was definitely achieved.
The survival of groups of inoculated mice under the above conditions and treated by means of the products according to the invention was followed.
For these tests, hybrid mice (C57B1/6×AKR) FI bred at the PASTEUR INSTITUTE, from strains derived from the CNRS breeding station at ORLEANS, were used.
(§4) The infection by Klebsiella pneumoniae, a strain of the capsular 2, biotype d type, was done from a culture of 16 hours in a medium for pneumococci (No. 53515, PASTEUR INSTITUTE).
(§5) Various treatment conditions and tests have been studied. Thus, the treatment was carried out either 24 hours before the test, or 1 hour after the latter. The influence of the infecting dose and the mode of administration has also been studied. In particular, the protective properties of the products have been determined in the case of an injection of Klebsiella pneumoniae by the intravenous route, which corresponds to a severe infection.
(§6) In the majority of cases, the tests have been carried out on mice aged from 5 to 6 weeks. In one part of the tests, on the other hand, mice 7 days old were used, since the immune responses, in very young subjects are substantially different, and, on the whole, much more difficult to stimulate than those that are observed in adult subjects.
(§7) The products are administered in apyrogenic physiological solution in the proportion of 0.2 ml for intravenous administration to adult mice and 0.05 ml for sub-cutaneous injection to mice 7 days old. The controls received the solution alone.
(§8) The percentage protection indicated corresponds to the difference in percentages of survivors of the treated group with respect to the control group.

[4] = test system: ovalbumin; assay: Adjuvant character in emulsion: delayed hypersensitivity cutaneous test; type: in vivo, Hartley guinea pigs; conditions: emulsion with 1 mg ovalbumin, intradermal; product 50 μg in FIA; challenge day 18, read 48 hours later
Experimental: as §1
Eighteen days after this immunization, possible delayed hypersensitivity reactions to the antigen were sought by injecting by the intradermal route 0.01 mg of ovalbumin in the side of the animals, and 48 hours later, the reaction of the point of injection was observed. The diameter in millimeters of the reaction thus-caused was measured.

[5] = test system: Klebsiella pneumoniae; assay: Anti-Klebsiella pneumoniae activity in the 7 day old mouse; type: in vivo; conditions: for % Protection / Number of mice D + 3 (survivors) / Number of mice D + 5 (survivors) / Number of mice D + 10 (survivors): 100 μg
From the text: as §2, §3, §4, §5, §6, §7, §8
The results reported in the following table represent the tests carried out in mice aged 7 days.

[6] = test system: Listeria monocytogenes; assay: Anti-Listeria monocytogenes activity in the adult mouse; type: in vivo; conditions: Listeria i.v. 10^3, treatment D-1, i.v.
Experimental: Under similar conditions to those of the tests of (4), the influence of the administration of the oligomer of p.aminophenyl-glycoside MDP was determined on the mortality of mice in which a dose of Listeria monocytogenes is administered, known for generating typically an infection of cellular type. As previously, the action of the product according to the invention was compared with that of Corynebacterium granulosum of which the anti-infectious properties are well known in this field. It was also determined, still by way of comparison, the action of Mur-NAc-L-Ala-D-isoGln (MDP).
The treatment of the mice and the inoculation were carried out intravenously. The injected products were in solution or suspension in 0.2 ml of apyrogenic physiological solution. The controls only received the solution.
The dose of Listeria administered was, in all the tests, 1.10^3 units.
The test whose results are given below have been carried out varying the doses of the tested products and the interval of time separating the treatment of inoculation of the Listeria monocytogenes (either 1, or 7 days). The number of surviving mice at the fifth and the tenth day following the inoculation was followed, and the percentage protection determined as for the preceding tests.

[7] = test system: suprarenalectomized mouse; assay: Toxicity, intravenous injection in the suprarenalectomized mouse; type: in vivo
From the text: The toxicity of the products according to the invention were studied by parenteral administration in mice. It was observed that the toxic doses were of an order of magnitude very much higher than that of the doses at which these products manifest their activity.
In addition, the activity/toxicity ratio is very favorable in the case of the pol-PAP-MDP, as appears when one considers the results of the tests reported below.

[8] = test system: Limulus amoebocyte lysate; assay: Limulus test (endotoxic type activity, gel formation)
Experimental: To show the absence of activity of the endotoxic type, products according to the invention were subjected to the Limulus test. For this purpose, 0.1 ml of the Limulus amoebocyte lysate preparation (marketed by the MALLINCKRODT Company, at Saint Louis, U.S.A.) was mixed with an equal volume of the tested product at various concentrations in solution in apyrogenic distilled water. The vessels used were also made apyrogenic by dry heating in the oven, at 180° C., for 2 hours.
After incubating the mixture for 20 minutes at 37° C. in tubes, the formation of gel characteristic of the presence of endotoxin was estimated.
A test is positive when the presence of a firm gel is observed which remains adherent to the bottom of the tube when the latter is inverted (technique described by Elin R. J. and Wolff S. M., J. Infect. Dis., 1973, 126: 349).

[9] = infection i.m. 1.5 × 10^4, treatment -24 h, 100 μg
[10] = infection i.v. 1.5 × 10^3, treatment -24 h, 100 μg
[11] = infection i.m. 1.5 × 10^4, treatment +1 h, 10 μg
[12] = infection i.m. 1.5 × 10^4, treatment +1 h, 100 μg
[13] = infection i.m. 1.5 × 10^4, treatment -24 h, 10 μg
[14] = infection i.v. 1.5 × 10^3, treatment -24 h, 10 μg
[15] = infection i.v. 1.5 × 10^5, treatment -24 h, 100 μg
[16] = infection i.v. 2.5 × 10^2, treatment -24 h, s.c.
[17] = infection s.c. 10^3, treatment -24, s.c.

CC(=O)N[C@H]1[C@H](Oc2ccc(N)cc2)O[C@H](CO)[C@@H](O)[C@@H]1O[C@H](C)C(=O)N[C@@H](C)C(=O)N[C@H](CCC(=O)O)C(N)=O [PAP-MDP, β-D-p.aminophenyl glycoside of N-acetyl-muramyl-L-alanyl-D-isoglutamine, reference compound]
Antibody titer [1]: 11
Serum antibodies [2]: 3480 µg/mL
anti-infectious activity with respect to Klebsiella pneumoniae (in words) [3]: practically not
% Protection [3, 9]: 19%
Number of mice D + 3 (survivors) [3, 9]: 28
Number of mice D + 5 (survivors) [3, 9]: 17
Number of mice D + 10 (survivors) [3, 9]: 11
% Protection [3, 10]: 0%
Number of mice D + 3 (survivors) [3, 10]: 6
Number of mice D + 5 (survivors) [3, 10]: 2
Number of mice D + 10 (survivors) [3, 10]: 2
Cutaneous test diameter in mm [4]: 14.4 mm

N^ε.N^ε' 'bis(N-acetyl-muramyl-L-alanyl-D-isoglutamine-L-lysine)-adipimidyl, dichlorohydrate [Adipimidyl-bis-MDP-Lys]
Antibody titer [1]: 200
Serum antibodies [2]: 6000 µg/mL
% Protection [3, 9]: 44%
Number of mice D + 3 (survivors) [3, 9]: 27
Number of mice D + 5 (survivors) [3, 9]: 23
Number of mice D + 10 (survivors) [3, 9]: 22
Cutaneous test diameter in mm [4]: 17 mm

polymer of β-D-p.aminophenyl-glycoside of Mur-NAc-L-Ala-D-isoGln [Pol (PAP-MDP)]
Antibody titer [1]: 50
anti-infectious activity with respect to Klebsiella pneumoniae (in words) [3]: anti-infectious
% Protection [3, 11]: 50%
Number of mice D + 3 (survivors) [3, 11]: 16
Number of mice D + 5 (survivors) [3, 11]: 13
Number of mice D + 10 (survivors) [3, 11]: 11
% Protection [3, 12]: 81%
Number of mice D + 3 (survivors) [3, 12]: 16
Number of mice D + 5 (survivors) [3, 12]: 16
Number of mice D + 10 (survivors) [3, 12]: 16
% Protection [3, 13]: 58%
Number of mice D + 3 (survivors) [3, 13]: 24
Number of mice D + 5 (survivors) [3, 13]: 21
Number of mice D + 10 (survivors) [3, 13]: 19
% Protection [3, 9]: 72%
Number of mice D + 3 (survivors) [3, 9]: 24
Number of mice D + 5 (survivors) [3, 9]: 24
Number of mice D + 10 (survivors) [3, 9]: 22
% Protection [3, 14]: 16%
Number of mice D + 3 (survivors) [3, 14]: 22
Number of mice D + 5 (survivors) [3, 14]: 17
Number of mice D + 10 (survivors) [3, 14]: 9
% Protection [3, 10]: 75%
Number of mice D + 3 (survivors) [3, 10]: 15
Number of mice D + 5 (survivors) [3, 10]: 14
Number of mice D + 10 (survivors) [3, 10]: 14
% Protection [3, 15]: 12%
Number of mice D + 3 (survivors) [3, 15]: 12
Number of mice D + 5 (survivors) [3, 15]: 4
Number of mice D + 10 (survivors) [3, 15]: 3
active dose (anti-infectious activity) ([3]; as stated in the Limulus discussion): 10 μg per mouse
% Protection [5, 16]: 41%
Number of mice D + 3 (survivors) [5, 16]: 14
Number of mice D + 5 (survivors) [5, 16]: 10
Number of mice D + 10 (survivors) [5, 16]: 9
% Protection [5, 17]: 34%
Number of mice D + 3 (survivors) [5, 17]: 22
Number of mice D + 5 (survivors) [5, 17]: 19
Number of mice D + 10 (survivors) [5, 17]: 19
anti-infectious activity with respect to Klebsiella pneumoniae (in words) ([5]; summary of Table 4): notable anti-infectious activity
% Protection ([6]; 10 μg): 29%
Number of mice D + 5 (survivors) ([6]; 10 μg): 10
Number of mice D + 10 (survivors) ([6]; 10 μg): 6
% Protection ([6]; 100 μg): 71%
Number of mice D + 5 (survivors) ([6]; 100 μg): 23
Number of mice D + 10 (survivors) ([6]; 100 μg): 19
lethal dose 50 [7]: higher than 100 μg
times less toxic than endotoxin extracted from E. coli [7]: 5000 times
times less active than the LPS on Limulus test [8]: 500,000 times
concentration leading to a positive response (Limulus test) ([8]; 20 minutes at 37° C., firm gel): ~15000 ng/mL
